Measured values published in patent publication US20170050957A1, “4-AMINO-6-(HETEROCYCLIC)PICOLINATES AND 6-AMINO-2-(HETEROCYCLIC)PYRIMIDINE-4-CARBOXYLATES AND THEIR USE AS HERBICIDES” (Dow AgroSciences LLC, priority 2013, published 2017).
Where two headings read alike, the source gives them in different places.

Key:
[1] = system: Key Broadleaf Weed and Crop Species; test: Post-emergent Test II herbicidal activity (Table 15); assay type: in vivo; settings: post-emergence, 336 h, 14 d; for pest or weed control at 35 g/ha: 35 g ai/ha; for pest or weed control at 70 g/ha: 70 g ai/ha; for pest or weed control at 140 g/ha: 140 g ai/ha
Procedure, shortened: (§1)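 Visual injury rating (0 = none, 100 = complete kill) taken 14 d after treatment, relative to untreated plants. Compounds in acetone/DMSO with crop oil concentrate and Triton X-155 were track-sprayed at 187 L/ha onto seedlings at the first-second true leaf stage.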

[2] = system: Key Grass and Sedge Weeds as well as Grass Crops; test: Post-emergent Test II herbicidal activity (Table 16); assay type: in vivo; settings: post-emergence, 336 h, 14 d; for pest or weed control at 35 g/ha: 35 g ai/ha; for pest or weed control at 70 g/ha: 70 g ai/ha; for pest or weed control at 140 g/ha: 140 g ai/ha
Procedure, shortened: as §1

[3] = Abutilon theophrasti, velvetleaf (Abutilon theophrasti), read-out: Visual Growth Reduction (%) 14 Days After Application, ABUTH
[4] = Amaranthus retroflexus, redroot pigweed (Amaranthus retroflexus), read-out: Visual Growth Reduction (%) 14 Days After Application, AMARE
[5] = Brassica napus, oilseed rape, canola (Brassica napus), read-out: Visual Growth Reduction (%) 14 Days After Application, BRSNN
[6] = Chenopodium album, lambsquarters (Chenopodium album), read-out: Visual Growth Reduction (%) 14 Days After Application, CHEAL
[7] = Euphorbia heterophylla, wild poinsettia (Euphorbia heterophylla), read-out: Visual Growth Reduction (%) 14 Days After Application, EPHHL
[8] = Helianthus annuus, sunflower (Helianthus annuus), read-out: Visual Growth Reduction (%) 14 Days After Application, HELAN
[9] = Cyperus esculentus, yellow nutsedge (Cyperus esculentus), read-out: Visual Growth Reduction (%) 14 Days After Application, CYPES
[10] = Echinochloa crus-galli, barnyardgrass (Echinochloa crus-galli), read-out: Visual Growth Reduction (%) 14 Days After Application, ECHCG
[11] = Oryza sativa, rice (Oryza sativa), read-out: Visual Growth Reduction (%) 14 Days After Application, ORYSA
[12] = Setaria faberi, giant foxtail (Setaria faberi), read-out: Visual Growth Reduction (%) 14 Days After Application, SETFA
[13] = Triticum aestivum, wheat, spring (Triticum aestivum), read-out: Visual Growth Reduction (%) 14 Days After Application, TRZAS
[14] = Zea mays, maize, corn (Zea mays), read-out: Visual Growth Reduction (%) 14 Days After Application, ZEAMX

## COC(=O)c1nc(-c2ccc(Cl)c3ccoc23)nc(N)c1OC [Compound 2.26]
[1]; [3]
  pest or weed control at 35 g/ha: 45 to 59%
  pest or weed control at 70 g/ha: 60 to 74%
  pest or weed control at 140 g/ha: 60 to 74%
[1]; [4]
  pest or weed control at 35 g/ha: 95 to 100%
  pest or weed control at 70 g/ha: 95 to 100%
  pest or weed control at 140 g/ha: 95 to 100%
[1]; [5]
  pest or weed control at 35 g/ha: 45 to 59%
  pest or weed control at 70 g/ha: 60 to 74%
  pest or weed control at 140 g/ha: 60 to 74%
[1]; [6]
  pest or weed control at 35 g/ha: 95 to 100%
  pest or weed control at 70 g/ha: 95 to 100%
  pest or weed control at 140 g/ha: 95 to 100%
[1]; [7]
  pest or weed control at 35 g/ha: 45 to 59%
  pest or weed control at 70 g/ha: 60 to 74%
  pest or weed control at 140 g/ha: 75 to 84%
[1]; [8]
  pest or weed control at 35 g/ha: 75 to 84%
  pest or weed control at 70 g/ha: 95 to 100%
  pest or weed control at 140 g/ha: 95 to 100%
[2]; [9]
  pest or weed control at 35 g/ha: 0 to 29%
  pest or weed control at 70 g/ha: 0 to 29%
  pest or weed control at 140 g/ha: 0 to 29%
[2]; [10]
  pest or weed control at 35 g/ha: 0 to 29%
  pest or weed control at 70 g/ha: 0 to 29%
  pest or weed control at 140 g/ha: 0 to 29%
[2]; [11]
  pest or weed control at 35 g/ha: 0 to 29%
  pest or weed control at 70 g/ha: 0 to 29%
  pest or weed control at 140 g/ha: 0 to 29%
[2]; [12]
  pest or weed control at 35 g/ha: 0 to 29%
  pest or weed control at 70 g/ha: 0 to 29%
  pest or weed control at 140 g/ha: 0 to 29%
[2]; [13]
  pest or weed control at 35 g/ha: 0 to 29%
  pest or weed control at 70 g/ha: 0 to 29%
  pest or weed control at 140 g/ha: 0 to 29%
[2]; [14]
  pest or weed control at 35 g/ha: 0 to 29%
  pest or weed control at 70 g/ha: 0 to 29%
  pest or weed control at 140 g/ha: 0 to 29%
other
  melting point: 178 °C

## COC(=O)c1nc(-c2ccc3sccc3c2)c(Cl)c(N)c1Cl [Compound 3.01, Methyl 4-amino-6-(benzo[b]thiophenyl-5-yl)-3,5-dichloropicolinate]
[1]; [3]
  pest or weed control at 35 g/ha: 60 to 74%
  pest or weed control at 70 g/ha: 60 to 74%
  pest or weed control at 140 g/ha: 75 to 84%
[1]; [4]
  pest or weed control at 35 g/ha: 85 to 94%
  pest or weed control at 70 g/ha: 95 to 100%
  pest or weed control at 140 g/ha: 95 to 100%
[1]; [5]
  pest or weed control at 35 g/ha: 0 to 29%
  pest or weed control at 70 g/ha: 0 to 29%
  pest or weed control at 140 g/ha: 0 to 29%
[1]; [6]
  pest or weed control at 35 g/ha: 95 to 100%
  pest or weed control at 70 g/ha: 95 to 100%
  pest or weed control at 140 g/ha: 95 to 100%
[1]; [7]
  pest or weed control at 35 g/ha: 0 to 29%
  pest or weed control at 70 g/ha: 0 to 29%
  pest or weed control at 140 g/ha: 0 to 29%
[1]; [8]
  pest or weed control at 35 g/ha: 75 to 84%
  pest or weed control at 70 g/ha: 75 to 84%
  pest or weed control at 140 g/ha: 85 to 94%
[2]; [9]
  pest or weed control at 35 g/ha: 0 to 29%
  pest or weed control at 70 g/ha: 0 to 29%
  pest or weed control at 140 g/ha: 0 to 29%
[2]; [10]
  pest or weed control at 35 g/ha: 0 to 29%
  pest or weed control at 70 g/ha: 0 to 29%
  pest or weed control at 140 g/ha: 0 to 29%
[2]; [11]
  pest or weed control at 35 g/ha: 0 to 29%
  pest or weed control at 70 g/ha: 0 to 29%
  pest or weed control at 140 g/ha: 0 to 29%
[2]; [12]
  pest or weed control at 35 g/ha: 0 to 29%
  pest or weed control at 70 g/ha: 0 to 29%
  pest or weed control at 140 g/ha: 0 to 29%
[2]; [13]
  pest or weed control at 35 g/ha: 0 to 29%
  pest or weed control at 70 g/ha: 0 to 29%
  pest or weed control at 140 g/ha: 0 to 29%
[2]; [14]
  pest or weed control at 35 g/ha: 0 to 29%
  pest or weed control at 70 g/ha: 45 to 59%
  pest or weed control at 140 g/ha: 60 to 74%
other
  melting point: 50 to 56 °C

## Nc1c(Cl)c(C(=O)O)nc(-c2ccc3sccc3c2)c1Cl [Compound 3.02, 4-Amino-6-(benzo[b]thiophen-5-yl)-3,5-dichloropicolinic acid]
[1]; [3]
  pest or weed control at 35 g/ha: 0 to 29%
  pest or weed control at 70 g/ha: 0 to 29%
  pest or weed control at 140 g/ha: 0 to 29%
[1]; [4]
  pest or weed control at 35 g/ha: 95 to 100%
  pest or weed control at 70 g/ha: 95 to 100%
  pest or weed control at 140 g/ha: 95 to 100%
[1]; [5]
  pest or weed control at 35 g/ha: 0 to 29%
  pest or weed control at 70 g/ha: 0 to 29%
  pest or weed control at 140 g/ha: 0 to 29%
[1]; [6]
  pest or weed control at 35 g/ha: 85 to 94%
  pest or weed control at 70 g/ha: 85 to 94%
  pest or weed control at 140 g/ha: 85 to 94%
[1]; [7]
  pest or weed control at 35 g/ha: 0 to 29%
  pest or weed control at 70 g/ha: 0 to 29%
  pest or weed control at 140 g/ha: 0 to 29%
[1]; [8]
  pest or weed control at 35 g/ha: 60 to 74%
  pest or weed control at 70 g/ha: 75 to 84%
  pest or weed control at 140 g/ha: 85 to 94%
[2]; [9]
  pest or weed control at 35 g/ha: 0 to 29%
  pest or weed control at 70 g/ha: 0 to 29%
  pest or weed control at 140 g/ha: 0 to 29%
[2]; [10]
  pest or weed control at 35 g/ha: 0 to 29%
  pest or weed control at 70 g/ha: 0 to 29%
  pest or weed control at 140 g/ha: 0 to 29%
[2]; [11]
  pest or weed control at 35 g/ha: 0 to 29%
  pest or weed control at 70 g/ha: 0 to 29%
  pest or weed control at 140 g/ha: 0 to 29%
[2]; [12]
  pest or weed control at 35 g/ha: 0 to 29%
  pest or weed control at 70 g/ha: 0 to 29%
  pest or weed control at 140 g/ha: 0 to 29%
[2]; [13]
  pest or weed control at 35 g/ha: 0 to 29%
  pest or weed control at 70 g/ha: 0 to 29%
  pest or weed control at 140 g/ha: 0 to 29%
[2]; [14]
  pest or weed control at 35 g/ha: 0 to 29%
  pest or weed control at 70 g/ha: 60 to 74%
  pest or weed control at 140 g/ha: 60 to 74%
other
  melting point: 157 to 159 °C
